Measured values: paper PMC4117522, “Proteasome Inhibitors Alter Levels of Intracellular Peptides in HEK293T and SH-SY5Y Cells” (PLoS ONE, 2014)
Like-named read-outs stand apart in the source and are kept apart here.

What was measured:
[1] = system: HEK293T cell aminopeptidase activity (Ala-AMC cleavage); assay: Aminopeptidase assay with Ala-AMC in HEK293T cell extracts; assay type: biochemical, human; conditions: HEK293T cell extract; for effect on cleavage of Ala-AMC: 10 µM inhibitor; for residual amount of activity: 50 µM
Procedure: (§1) All enzyme assays described below were performed in the linear range of the assay, as determined from time-course studies. HEK293T cells were lysed by sonication in 50 mM TrisHCl buffer, pH 7.5, containing 40 mM KCl, 5 mM MgCl2, 0.5 mM ATP, and 1 mM DTT (Buffer 1).
(§2) To measure TPP2, the fluorescent substrate was Ala-Ala-Phe-AMC. Aminopeptidase (AP) assays were performed with Leu-AMC and Ala-AMC, which detect leucine aminopeptidase (LAP), puromycin-sensitive aminopeptidase (PSAP), and other enzymes. To measure the effect of aminopeptidase/proteasome inhibitors on cleavage of Ala-Ala-Phe-AMC and Leu-AMC, 1∶50 dilution of the cell extract was pre-incubated with the inhibitor and Buffer 1 for 30 min, followed by addition of 100 µM final concentration of the respective substrate. For Ala-AMC, the same dilution of the cell extract was pre-incubated with the inhibitor and 50 mM MOPS buffer, pH 7.5, containing 40 mM KCl, 5 mM MgCl2, 0.5 mM ATP, and 1 mM DTT (Buffer 2), followed by addition of 100 µM final concentration of the substrate. After incubation at 37°C for 1 hour, enzyme activity was quantified by fluorescence measurement of the substrate (380 nm excitation, 460 nm emission).
(§3) Figure 7 Effect of aminopeptidase inhibitors on Ala-AMC and Leu-AMC cleavage. HEK 293T cell extract (panels A–D) or recombinant PSAP (panels E–F) were treated with increasing concentrations of bestatin or puromycin for 30 minutes followed by the addition of substrate and incubation for 1 hour. Enzyme activity was determined by fluorescence measurement of AMC and expressed as percentage enzyme activity relative to the control without inhibitor. (A) Bestatin inhibition of HEK293T cell extract assayed with Ala-AMC. (B) Bestatin inhibition of HEK293T cell extract assayed with Leu-AMC. (C) Puromycin inhibition of HEK293T cell extract assayed with Ala-AMC. (D) Puromycin inhibition of HEK293T cell extract assayed with Leu-AMC. (E) Puromycin inhibition of purified PSAP assayed with Ala-AMC. (F) Puromycin inhibition of purified PSAP assayed with Leu-AMC. Error bars show standard error of mean (n = 4), points without error bars had error ranges smaller than the symbol size. Statistical analysis was performed using Student’s t-test: *, p≤0.05; **, p≤0.01; ***, p≤0.001; ns, no significant difference (p>0.05) versus the control.
(§4) Figure 8 Effect of proteasome inhibitors on Ala-AMC and Leu-AMC cleavage. HEK 293T cell extract or recombinant PSAP was treated with 10 µM of each of the proteasome inhibitors for 1 hour in addition to a 30 min pre-incubation without the substrate. Enzyme activity was determined by fluorescence measurement of AMC and expressed as percentage enzyme activity relative to the control without inhibitor. Panels A and B represent the effect of proteasome inhibitors on cleavage of Ala-AMC and Leu-AMC respectively, in HEK293T cell extract. […] Error bars show standard error of mean (n = 4). Statistical analysis was performed using Student’s t-test: *, p≤0.05; **, p≤0.01; ***, p≤0.001; ns, no significant difference (p>0.05) versus the control.

[2] = system: HEK293T cell aminopeptidase activity (Leu-AMC cleavage); assay: Aminopeptidase assay with Leu-AMC in HEK293T cell extracts; assay type: biochemical, human; conditions: HEK293T cell extract; for effect on cleavage of Leu-AMC: 10 µM inhibitor
Procedure: as §1, §2, §3, §4

[3] = molecular target: T1, recombinant human puromycin-sensitive aminopeptidase (PSAP, rhNPEPPS) (Homo sapiens, UniProt P55786); assay: Cleavage of Leu-AMC and Ala-AMC by purified recombinant PSAP; assay type: biochemical; conditions: for effect on cleavage of Ala-AMC by purified PSAP: 10 µM inhibitor
T1 construct: purchased R&D Systems
Procedure: To measure the effect of inhibitors on cleavage of Leu-AMC and Ala-AMC by purified PSAP, recombinant human PSAP (rhNPEPPS, R&D Systems) was diluted 1∶2000 in Buffer 2 containing 0.1 mg/ml BSA. The enzyme was pre-incubated with the inhibitor and Buffers 1 or 2, followed by addition of 100 µM final concentration of Leu-AMC (to the mix containing Buffer 1) and Ala-AMC (to the mix containing Buffer 2). After incubation at 37°C for 1 hour, PSAP activity was quantified by fluorescence measurement of the substrate (380 nm excitation, 460 nm emission).
as §3, §4

HEK293T cells [4] = assay: Quantitative peptidomics (TMAB isotopic labels, LC-MS/MS) of inhibitor-treated HEK293T cells; assay type: cell-based, human; conditions: HEK293T cells
Procedure: (§5) HEK293T and SH-SY5Y cells were grown to 80–90% confluence in DMEM and RPMI supplemented with 10% fetal bovine serum and penicillin/streptomycin. A single plate of cells (150 mm×25 mm) was used for each group. At the start of the experiment, media were removed from the plates and cells were washed with DPBS (138 mM NaCl, 8.06 mM Na2HPO4, 2.67 mM KCl, 1.47 mM KH2PO4, 0.9 mM CaCl2 and 0.49 mM MgCl2). This was followed by addition of serum-free media containing the proteasome or aminopeptidase inhibitors, or 0.05% DMSO as a control for the inhibitors that were soluble in DMSO. Each experiment consisted of two control groups and two or three replicate groups of cells treated with one of the inhibitors. The cells were incubated at 37°C for 20 minutes, following which media containing the inhibitor was removed, cells were washed with DPBS, detached from the plate by scraping into DPBS (without trypsin), and centrifuged at 800×g for 5 min. The wash buffer was supplemented with the appropriate inhibitor at the same concentration as used for the treatment, thereby ensuring that the changes induced in peptide levels were not reversed during harvesting of cells due to possible dissociation of the reversible inhibitors. The wash time (including centrifugation) was 15 minutes, for a total treatment time of 35 minutes. After centrifugation, the cell pellet was resuspended in 1 ml of 80°C water and incubated in an 80°C water bath for 20 minutes to inactivate proteases. The mixture was again centrifuged (13,000×g, 30 min, 4°C) and was stored at −80°C overnight. For peptide extraction, the samples were thawed and centrifuged again. The lysate was subsequently cooled on ice and acidified with HCl to a final concentration of 10 mM. After 15 min incubation on ice, the lysate was centrifuged at 13,000×g for 30 min at 4°C. To the supernatant, 250 µL of dibasic sodium phosphate (0.4 M, pH 9.5) was added and the mixture was stored at −80°C until labeling.
(§6) The labeling protocol has been earlier described in detail. Each group within an experiment (control/treated) was labeled with a different isotopic tag. The TMAB-NHS labels were dissolved in DMSO to a concentration of 400 µg/µL and 15 mg of label was used per 150 mm plate of cells. […] At the beginning, the pH of the peptide extract was adjusted to 9.5 with 1 M NaOH. Labeling was performed over 8 rounds; 4.69 µL of the label was added to the extract every 20 min. The pH was measured between each round and if necessary, brought back to 9.5 for the first five rounds. For rounds 6–8, the pH was not adjusted after the addition of the TMAB-NHS reagent. After the final round of label addition, the pH was adjusted to 9.5 again and the extracts were incubated at room temperature for 90 min. Thereafter, 30 µL of 2.5 M glycine was added to quench any unreacted label. Following 40 min incubation at room temperature, the labeled extracts for a single experiment were pooled and filtered through Amicon Ultracel-10 K units. It is important to ensure that only N-terminal amines and lysine side-chain amines of peptides are TMAB-labeled and not tyrosines. To hydrolyze any labeled tyrosine, 30 µL of a 2 M solution of hydroxylamine hydrochloride (pH 3.7) was added over three rounds to the pooled and filtered sample. The pH was measured after the addition of hydroxylamine and adjusted to 9.0 with 1 M NaOH. The samples were desalted through PepClean C-18 spin columns (Thermo Scientific, Rockford, IL, USA) by following manufacturer’s instructions. Peptides were eluted using 160 µL of 0.5% TFA and 70% acetonitrile, frozen at −80°C and then lyophilized in a vacuum centrifuge and stored at −80°C until analysis by mass spectrometry.
(§7) The LC-MS/MS experiments were performed on a Synapt G2 mass spectrometer coupled to a NanoAcquity capillary liquid chromatography system (Waters Co., Milford, MA, USA).

SH-SY5Y cells = assay: Quantitative peptidomics (TMAB isotopic labels, LC-MS/MS) of inhibitor-treated SH-SY5Y cells; assay type: cell-based, human; conditions: SH-SY5Y cells, 35 min; 2.5 µM MG132, 1 µM other inhibitors
Procedure: as §5, §6, §7

[5] = system: tripeptidyl peptidase 2 (TPP2); assay: Ala-Ala-Phe-AMC cleavage (TPP2 substrate) in HEK293T cell extracts; assay type: biochemical, human; conditions: HEK293T cell extract, micromolar concentrations
Procedure: as §1, §2
Enzyme activity was determined by fluorescence measurement of AMC and expressed as percentage enzyme activity relative to the control lacking inhibitor. […]

HEK293T cells [6] = conditions: cited from earlier work
[7] = molecular target: T2, proteasome (beta 5, chymotrypsin-like activity) in HEK293T cell extract (Homo sapiens, UniProt P20618+P28074); assay: Proteasome activity in HEK293T cell extracts with beta 5-selective substrate Suc-Leu-Leu-Val-Tyr-AMC; assay type: biochemical; conditions: Suc-Leu-Leu-Val-Tyr-AMC, 30 min pre-incubation, 1 hour, read-out: IC50, inhibition of proteasome activity
T2 construct: endogenous in cells; host or cells: HEK293T
Procedure: as §1
To measure proteasome activity, a 1∶50 dilution of the cell extract was pre-incubated with the inhibitor and Buffer 1 for 30 min, followed by addition of 100 µM final concentration of the proteasome substrate succinyl-Leu-Leu-Val-Tyr-7-amino-4-methylcoumarin (Suc-Leu-Leu-Val-Tyr-AMC). After incubation at 37°C for 1 hour, proteasomal activity was quantified by fluorescence measurement of the substrate (380 nm excitation, 460 nm emission).
Figure 2 Inhibition of proteasome activity in HEK293T cells with various proteasome inhibitors. HEK293T cell extract was treated with increasing concentrations of the indicated compound for […] and incubation for 1 hour […]. Enzyme activity was determined by fluorescence measurement of AMC. The resulting activity is expressed as percent enzyme activity relative to the control reaction without inhibitor.

[8] = 35 min, 2.5 µM MG132, 1 µM other inhibitors

T1 sequence (P55786 whole entry): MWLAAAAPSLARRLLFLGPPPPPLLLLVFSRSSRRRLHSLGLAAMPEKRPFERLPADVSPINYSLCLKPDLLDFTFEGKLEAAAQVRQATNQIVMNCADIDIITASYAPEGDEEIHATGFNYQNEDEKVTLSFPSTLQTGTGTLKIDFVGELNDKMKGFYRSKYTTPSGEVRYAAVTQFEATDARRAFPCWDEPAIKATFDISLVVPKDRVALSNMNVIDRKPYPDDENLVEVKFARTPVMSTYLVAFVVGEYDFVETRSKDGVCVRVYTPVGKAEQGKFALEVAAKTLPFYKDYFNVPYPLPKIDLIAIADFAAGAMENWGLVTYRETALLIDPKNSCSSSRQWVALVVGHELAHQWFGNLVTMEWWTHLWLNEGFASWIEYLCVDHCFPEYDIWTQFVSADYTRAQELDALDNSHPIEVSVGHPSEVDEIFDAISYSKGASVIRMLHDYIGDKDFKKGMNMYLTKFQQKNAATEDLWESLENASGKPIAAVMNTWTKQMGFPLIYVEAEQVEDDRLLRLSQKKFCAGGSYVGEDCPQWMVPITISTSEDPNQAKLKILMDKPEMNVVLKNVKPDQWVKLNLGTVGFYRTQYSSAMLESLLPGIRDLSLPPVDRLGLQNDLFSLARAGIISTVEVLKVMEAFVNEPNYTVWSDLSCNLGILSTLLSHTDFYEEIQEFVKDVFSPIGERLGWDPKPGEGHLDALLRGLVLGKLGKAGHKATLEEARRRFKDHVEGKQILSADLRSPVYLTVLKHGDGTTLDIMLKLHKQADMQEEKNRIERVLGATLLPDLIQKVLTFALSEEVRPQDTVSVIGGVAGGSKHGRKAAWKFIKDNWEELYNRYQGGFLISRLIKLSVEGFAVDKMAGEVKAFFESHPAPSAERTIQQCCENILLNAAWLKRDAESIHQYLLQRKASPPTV

CC(C)C[C@H](NC(=O)CNC(=O)c1cc(Cl)ccc1Cl)B(O)O [MLN2238]
effect on cleavage of Ala-AMC [1]: inhibit
effect on cleavage of Leu-AMC [2]: inhibit
effect on cleavage of Ala-AMC by purified PSAP [3]: inhibitory
change in levels of intracellular peptides (peptidome) (HEK293T cells [4]; [8]): the majority of peptides was greatly decreased

CC(C)C[C@H](NC(=O)[C@@H](O)[C@H](N)Cc1ccccc1)C(=O)O [bestatin]
inhibition of Ala-AMC cleavage [1]: > 80%
residual amount of activity [1]: ~20%
Enzyme activity (% control with no inhibitor) ([1]; Ala-AMC, bestatin 500 µM, bortezomib 0): 15.5±0.7 % control with no inhibitor
inhibition of Leu-AMC cleavage [2]: > 80%

CC(C)C[C@H](NC(=O)[C@H](CC(C)C)NC(=O)[C@H](CC(C)C)NC(=O)OCc1ccccc1)B(O)O [MG262]
effect on cleavage of Ala-AMC [1]: inhibit
effect on cleavage of Leu-AMC [2]: inhibit
effect on cleavage of Ala-AMC by purified PSAP [3]: inhibitory
change in levels of intracellular peptides (peptidome) (HEK293T cells [4]; [8]): changes that were generally similar to those caused by 500 nM bortezomib
change in levels of intracellular peptides (peptidome) (SH-SY5Y cells): changes that were generally similar to those caused by 500 nM bortezomib

CCCCNC(=O)[C@@H]1Cc2ccccc2N1C(=O)[C@@H](N)CC [butabindide, reference compound]
inhibition of Ala-Ala-Phe-AMC cleavage [5]: Approximately 50%
change in levels of intracellular peptides (peptidome) (HEK293T cells [4]; 100 µM bestatin methyl ester 75 min, 100 µM butabindide 35 or 75 min, bestatin): failed to substantially alter the peptide levels

CC[C@H](C)[C@H](NC(=O)[C@H]([C@@H](C)CC)N(C)C(C)=O)C(=O)N[C@H](C(=O)N[C@@H](CC(C)C)C(=O)[C@@]1(C)CO1)[C@@H](C)O [epoxomicin]
change in levels of intracellular peptides (peptidome) (HEK293T cells [6]; HEK293T cells, 0.2 µM for 1 hour): the majority of peptides was greatly decreased
levels of peptides arising from cleavage at beta 1 sites (HEK293T cells [6]; cells treated for 1 hour with 2 µM): greatly elevated

CC(C)[C@H](O)[C@@]12NC(=O)[C@H](C)[C@@H]1OC2=O [clasto-Lactacystin β-lactone, reference compound]
IC50 [7]: ~10 µM
change in levels of intracellular peptides (peptidome) (HEK293T cells [4]; [8]): the majority of peptides was greatly decreased

COc1ccc(C[C@H](N)C(=O)N[C@H]2[C@@H](O)[C@H](n3cnc4c(N(C)C)ncnc43)O[C@@H]2CO)cc1 [puromycin]
inhibition of Ala-AMC cleavage [1]: > 80%
residual amount of activity [1]: ~20%
inhibition of Leu-AMC cleavage [2]: > 80%
potency on purified PSAP versus HEK293T cell extract ([3]; Ala-AMC and Leu-AMC): comparable
